From patent US20120251465A1, “FLAVOR COMPOSITION CONTAINING FLAVONE GLYCOSIDES” (priority 2011, published 2012)

Assay: Warming compositions evaluated by a trained sensory panel (intensity scale 0 to 5)
Details: flavone glycoside 1 ppm combined with capsicum oleoresin 2 ppm; for Enhancement of the warming effect of capsicum oleoresin: versus capsicum oleoresin 2 ppm alone; for Flavor Intensity: scale 0 to 5 (0=none, 1=minimal, 3=moderate, 5=intense)

Row | SMILES | Enhancement of the warming effect of capsicum oleoresin | Flavor Intensity
1 | O=c1cc(-c2ccc(O)cc2)oc2cc(OC3OC(CO)C(O)C(O)C3O)cc(O)c12 (centres unmarked) [Formula II, apigenin 7-O-glucoside] | enhanced | 2.5
2 | COc1ccc(-c2cc(=O)c3c(O)cc(OC4OC(CO)C(O)C(O)C4O)cc3o2)cc1 (centres unmarked) [Formula III, acacetin 7-O-glucoside] | enhanced | 2.5
3 | CC1OC(OCC2OC(Oc3cc(O)c4c(=O)cc(-c5ccc(O)c(O)c5)oc4c3)C(O)C(O)C2O)C(O)C(O)C1O (centres unmarked) [Formula IV, luteolin 7-O-rutinoside] | enhanced | 2.5
4 | COc1ccc(-c2cc(=O)c3c(O)cc(OC4OC(COC5OC(C)C(O)C(O)C5O)C(O)C(O)C4O)cc3o2)cc1 (centres unmarked) [Formula V, acacetin 7-O-rutinoside] | enhanced | 3.5
